We go through 77 sequences from the supplement of paper PMC11208160.
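Note: IS621 recombinase and bridge RNA in Escherichia coli cells.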

This series can be described thus: recombinant barcode read abundance after kanamycin selection (control-corrected) (log10(CPM+1)); higher = more efficient recombination; sequences stand for … in AGTGCAGAGAAAATCGGCCAGTTTTCTCTGCCTGCAGTCCGCATGCCGT…AGATTTATGCAGCGGACTGCCTTTCTCCCAAAGTGATAAACCGGACAGTATCATGGACCGGTTTTCCCGGTAATCCGTATTTGCAAGGTTGGTTTCACT; site = the 11-nt target. In a few lines:
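A promoter, a target, a barcode and the first 104 bridge RNA bases under J23119 made up each oligo. Oligos were Gibson-cloned into a vector bearing the other 73 bp and a T7-inducible recombinase, then co-electroporated into E. coli with a donor plasmid and plated in duplicate on chloramphenicol/ampicillin LB agar (control) or chloramphenicol/ampicillin/kanamycin with 0.1 mM IPTG. Recombination efficiency is the averaged, control-corrected counts per million of recombinant-junction barcodes. Reported values are log10(CPM+1).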
Consider “TCAAGACCTTGGGTTCTAACCTGTTGCCG (site TCAAGACCTAG)”, for which the “recombinant barcode read abundance (log10)” value amounted to 0.179.
Next, “TCAAGACCTTGGGTTCTAACCTGTTGCCG (site TCAAGACCTCG)”: 0.461; “TCACAGGCTTGGGTTCTAACCTGTTGCCG (site TCACAGGCTCG)”: 0.361.
Under “TCACAGGCTTGGGTTCTAACCTGTTGCCG (site TCTCAGGCTCG)” stands 0.377; under “TCACGGACTTGGGTTCTAACCTGTTGCCT (site TCACGGACTAG)”, 1.1; under “TCACGGACTTGGGTTCTAACCTGTTGCCT (site TCCCGGACTAG)”, 0.101.
Next, “TCACGGACTTGGGTTCTAACCTGTTGCCT (site TCGCGGACTAG)”: 0.0352; “TCACGGACTTGGGTTCTAACCTGTTGCCT (site TCTCGGACTAG)”: 0.101; “TCACGTCCTTGGGTTCTAACCTGTTGCGT (site TCACGTCCTAA)”: 0.0145.
For “TCACGTCCTTGGGTTCTAACCTGTTGCGT (site TCACGTCCTAC)”, the “recombinant barcode read abundance (log10)” value was 1.3.
Next, “TCACGTCCTTGGGTTCTAACCTGTTGCGT (site TCACGTCCTAG)”: 0.0596; “TCACGTCCTTGGGTTCTAACCTGTTGCGT (site TCACGTCCTAT)”: 0.295; “TCACGTCCTTGGGTTCTAACCTGTTGCTT (site TCACGTCCTAA)”: 0.137.
Next, “TCACGTCCTTGGGTTCTAACCTGTTGCTT (site TCACGTCCTAC)”: 0.0167; “TCACGTCCTTGGGTTCTAACCTGTTGCTT (site TCACGTCCTAG)”: 0.262.
Under “TCACGTCCTTGGGTTCTAACCTGTTGCTT (site TCACGTCCTAT)” stands 0.145; under “TCAGAATCTTGGGTTCTAACCTGTTGCCT (site TCAGAATCTAG)”, 0.667.
On to “TCAGAATCTTGGGTTCTAACCTGTTGCCT (site TCAGCATCTAG)”, for which the “recombinant barcode read abundance (log10)” value worked out at 0.
Turning to “TCAGAATCTTGGGTTCTAACCTGTTGCCT (site TCAGGATCTAG)”, the “recombinant barcode read abundance (log10)” value turned out to be 0.371.
Next, “TCAGAATCTTGGGTTCTAACCTGTTGCCT (site TCAGTATCTAG)”: 0.0618; “TCAGGGACTTGGGTTCTAACCTGTTGCAG (site TCAGGGACTCT)”: 2.45; “TCAGGGACTTGGGTTCTAACCTGTTGCAG (site TCGGGGACTCG)”: 0.375.
As for “TCAGGTACTTGGGTTCTAACCTGTTGCCT (site ACAGGTACTAG)”, the “recombinant barcode read abundance (log10)” value was 0.0983.
Consider “TCAGGTACTTGGGTTCTAACCTGTTGCCT (site CCAGGTACTAG)”, for which the “recombinant barcode read abundance (log10)” value came to 0.0713.
Next, “TCAGGTACTTGGGTTCTAACCTGTTGCCT (site GCAGGTACTAG)”: 0.0652.
Next, “TCAGGTACTTGGGTTCTAACCTGTTGCCT (site TCAGGTACTAG)”: 0.163; “TCAGTATCTTGGGTTCTAACCTGTTGCCT (site TCAGAATCTAG)”: 0.145; “TCAGTATCTTGGGTTCTAACCTGTTGCCT (site TCAGCATCTAG)”: 0.533.
Next, “TCAGTATCTTGGGTTCTAACCTGTTGCCT (site TCAGGATCTAG)”: 0.107; “TCAGTATCTTGGGTTCTAACCTGTTGCCT (site TCAGTATCTAG)”: 1.4; “TCATCTCCTTGGGTTCTAACCTGTTGCCT (site ACATCTCCTAG)”: 0.188.
For “TCATCTCCTTGGGTTCTAACCTGTTGCCT (site CCATCTCCTAG)”, the “recombinant barcode read abundance (log10)” value turned out to be 0.0972.
Under “TCATCTCCTTGGGTTCTAACCTGTTGCCT (site GCATCTCCTAG)” stands 0.0477; under “TCATCTCCTTGGGTTCTAACCTGTTGCCT (site TCATCTCCTAG)”, 0.092.
Next, “TCATGGGCTTGGGTTCTAACCTGTTGCAG (site AGGGTTCCTAA)”: 0.457.
Next, “TCATGGGCTTGGGTTCTAACCTGTTGCAG (site TCATGGGCTCT)”: 1.92; “TCCAAAGCTTGGGTTCTAACCTGTTGCTA (site TCCAAAGCTTA)”: 0.249; “TCCAAAGCTTGGGTTCTAACCTGTTGCTA (site TCCCAAGCTTA)”: 0.141.
For “TCCAAAGCTTGGGTTCTAACCTGTTGCTA (site TCCGAAGCTTA)”, the “recombinant barcode read abundance (log10)” value is 0.294.
Under “TCCAAAGCTTGGGTTCTAACCTGTTGCTA (site TCCTAAGCTTA)” stands 0.251.
Next, “TCCAACACTTGGGTTCTAACCTGTTGCGG (site TCCAAACCTCC)”: 0.00935.
Next, “TCCAACACTTGGGTTCTAACCTGTTGCGG (site TCCAACACTCC)”: 1.31; “TCCAACCCTTGGGTTCTAACCTGTTGCGG (site TCAAACCCTCC)”: 0.0107; “TCCAACCCTTGGGTTCTAACCTGTTGCGG (site TCCAACCCTCC)”: 1.78.
Consider “TCCAACCCTTGGGTTCTAACCTGTTGCGG (site TCGAACCCTCC)”, for which the “recombinant barcode read abundance (log10)” value turned out to be 0.108.
Next, “TCCAACCCTTGGGTTCTAACCTGTTGCGG (site TCTAACCCTCC)”: 0.3; “TCCAAGACTTGGGTTCTAACCTGTTGCAG (site ACCAAGACTCG)”: 0.00865; “TCCAAGACTTGGGTTCTAACCTGTTGCAG (site TCCAAGACTCT)”: 1.72.
As to “TCCAAGCCTTGGGTTCTAACCTGTTGCAG (site TCCAAACCTCT)”, the “recombinant barcode read abundance (log10)” value came to 0.694.
“TCCAAGCCTTGGGTTCTAACCTGTTGCAG (site TCCAACCCTCT)”: the “recombinant barcode read abundance (log10)” value came to 0.0251.
Next, “TCCAAGCCTTGGGTTCTAACCTGTTGCAG (site TCCAAGCCTCT)”: 0.747; “TCCAAGCCTTGGGTTCTAACCTGTTGCAG (site TCCAATCCTCT)”: 0.39; “TCCAATCCTTGGGTTCTAACCTGTTGCAG (site TCCAAACCTCT)”: 0.114.
Under “TCCAATCCTTGGGTTCTAACCTGTTGCAG (site TCCAACCCTCT)” stands 0.0551; under “TCCAATCCTTGGGTTCTAACCTGTTGCAG (site TCCAAGCCTCT)”, 0.167; under “TCCAATCCTTGGGTTCTAACCTGTTGCAG (site TCCAATCCTCT)”, 0.381.
Next, “TCCACACCTTGGGTTCTAACCTGTTGCCT (site TCCACAACTAG)”: 0.122.
For “TCCACACCTTGGGTTCTAACCTGTTGCCT (site TCCACACCTAG)”, the “recombinant barcode read abundance (log10)” value was 0.63.
Under “TCCACACCTTGGGTTCTAACCTGTTGCCT (site TCCACAGCTAG)” stands 0.0788.
For “TCCACACCTTGGGTTCTAACCTGTTGCCT (site TCCACATCTAG)”, the “recombinant barcode read abundance (log10)” value was 0.0345.
“TCCACAGCTTGGGTTCTAACCTGTTGCCT (site TCCACAACTAG)”: the “recombinant barcode read abundance (log10)” value was 0.
Next, “TCCACAGCTTGGGTTCTAACCTGTTGCCT (site TCCACACCTAG)”: 0.212.
Next, “TCCACAGCTTGGGTTCTAACCTGTTGCCT (site TCCACAGCTAG)”: 0.784.
For “TCCACAGCTTGGGTTCTAACCTGTTGCCT (site TCCACATCTAG)”, the “recombinant barcode read abundance (log10)” value was determined as 0.
Under “TCCAGCACTTGGGTTCTAACCTGTTGCCT (site TCCAGCACTAG)” stands 0.412; under “TCCAGCACTTGGGTTCTAACCTGTTGCCT (site TCTGGCACTAG)”, 0; under “TCCAGTACTTGGGTTCTAACCTGTTGCTT (site TCCAGTACTAA)”, 0.0786.
Under “TCCAGTACTTGGGTTCTAACCTGTTGCTT (site TCCGGTACTAA)” stands 0.0788; under “TCCATAACTTGGGTTCTAACCTGTTGCCT (site GGGGCGTCTCA)”, 0.0285; under “TCCATAACTTGGGTTCTAACCTGTTGCCT (site TCCATAACTAG)”, 0.14.
Next, “TCCATCCCTTGGGTTCTAACCTGTTGCCT (site TCAATCCCTAG)”: 0.00792; “TCCATCCCTTGGGTTCTAACCTGTTGCCT (site TCCATCCCTAG)”: 0.613; “TCCATCCCTTGGGTTCTAACCTGTTGCCT (site TCGATCCCTAG)”: 0.0154.
Turning to “TCCATCCCTTGGGTTCTAACCTGTTGCCT (site TCTATCCCTAG)”, the “recombinant barcode read abundance (log10)” value is 0.116.
Under “TCCCACTCTTGGGTTCTAACCTGTTGCCT (site TCACACTCTAG)” stands 0.158; under “TCCCACTCTTGGGTTCTAACCTGTTGCCT (site TCCCACTCTAG)”, 1.56; under “TCCCACTCTTGGGTTCTAACCTGTTGCCT (site TCGCACTCTAG)”, 0.0564.
